The values below come from patent US20080312301A1, “Substituted N-Benzo[D]Isoxazol-3-Yl-Amine Compounds as Inhibitors of Mglur5, Serotonin (5-Ht) and Noradrenaline Receptors, and Uses Thereof” (Gruenenthal GmbH, priority 2005, published 2008).

In general, inhibition refers to the percentage by which the read-out fell short of the control. Lower therefore signals little suppression.

T1 sequence (I3LUI7 19-1212): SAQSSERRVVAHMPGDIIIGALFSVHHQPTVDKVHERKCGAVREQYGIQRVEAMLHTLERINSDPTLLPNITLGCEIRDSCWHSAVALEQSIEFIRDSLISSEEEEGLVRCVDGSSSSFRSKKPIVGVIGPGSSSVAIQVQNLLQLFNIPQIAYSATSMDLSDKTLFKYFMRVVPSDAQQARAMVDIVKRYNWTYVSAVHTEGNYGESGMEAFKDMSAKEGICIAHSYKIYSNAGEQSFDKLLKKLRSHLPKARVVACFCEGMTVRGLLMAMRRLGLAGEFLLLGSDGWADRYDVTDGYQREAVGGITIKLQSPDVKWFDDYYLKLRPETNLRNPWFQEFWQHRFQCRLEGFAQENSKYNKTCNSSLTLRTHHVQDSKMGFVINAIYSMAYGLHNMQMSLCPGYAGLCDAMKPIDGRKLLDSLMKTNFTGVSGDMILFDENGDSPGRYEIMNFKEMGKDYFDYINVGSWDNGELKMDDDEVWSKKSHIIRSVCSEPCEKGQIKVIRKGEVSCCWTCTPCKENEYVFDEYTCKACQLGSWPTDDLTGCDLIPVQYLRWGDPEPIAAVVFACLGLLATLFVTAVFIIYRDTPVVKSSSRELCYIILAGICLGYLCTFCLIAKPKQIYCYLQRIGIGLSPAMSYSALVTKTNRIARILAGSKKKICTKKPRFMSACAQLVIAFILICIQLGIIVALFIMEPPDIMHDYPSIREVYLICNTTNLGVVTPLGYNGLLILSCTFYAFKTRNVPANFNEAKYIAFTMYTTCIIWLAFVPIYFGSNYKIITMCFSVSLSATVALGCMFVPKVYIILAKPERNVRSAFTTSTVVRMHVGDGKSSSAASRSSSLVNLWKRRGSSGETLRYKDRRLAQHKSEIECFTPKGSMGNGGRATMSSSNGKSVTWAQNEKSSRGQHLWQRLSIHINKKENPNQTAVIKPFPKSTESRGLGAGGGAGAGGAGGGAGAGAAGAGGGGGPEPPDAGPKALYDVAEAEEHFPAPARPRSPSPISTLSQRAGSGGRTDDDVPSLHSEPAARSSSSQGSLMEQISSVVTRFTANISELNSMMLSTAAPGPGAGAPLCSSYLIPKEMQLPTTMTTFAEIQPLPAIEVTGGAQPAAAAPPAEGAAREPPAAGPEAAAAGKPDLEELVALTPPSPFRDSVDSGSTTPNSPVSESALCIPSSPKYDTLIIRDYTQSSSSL

This assay concerns the target T1, mGluR5 receptor (Sus scrofa, UniProt I3LUI7).
T1 construct: 450 μg of protein from brain homogenate are incubated with 5 nM^3[H]-MPEP; from tissue; host or cells: pig brain hemispheres without medulla, cerebellum and pons
The assay is described as follows: Affinity for the mGluR5 receptor: displacement of 3[H]-MPEP binding in pig brain homogenate. The settings on record: 10 μM compound, 5 nM 3[H]-MPEP. As to the method: II. Method for Determining the Affinity for the mGluR5 Receptor
In each case 450 μg of protein from brain homogenate are incubated with 5 nM^3[H]-MPEP (Tocris, order No. R1212) (MPEP=2-methyl-6-[…]) and the compounds to be investigated (10 μM in the assay) in buffer (as above) in 250 μl incubation mixtures in 96-well microtiter plates at room temperature for 60 min.
The filter plates were then dried at 55° C. for 60 min.
The compound `CCCCC(CC)C(=O)Nc1noc2cccc(OC)c12` (stereo not shown) [Example 159, N-(4-methoxybenzo[d]isoxazol-3-yl)-2-ethylhexanamide] registered an inhibition at 10 µM of 43.2%. As for `Cc1cc(C(=O)Nc2noc3ccc(Br)cc23)c(C)o1` [Example 134, 2,5-dimethylfuran-3-(5-bromobenzo[d]isoxazol-3-yl)carboxamide], the “mGluR5 receptor inhibition of the 3[H]-MPEP binding in % (10 μM)” value (“mGluR5 receptor inhibition … in % (10 μM)” below) is on record as 43.11%. With `O=C(Nc1noc2cc(Cl)ccc12)c1ccc(F)cc1C(F)(F)F` [Example 110, N-(6-chlorobenzo[d]isoxazol-3-yl)-4-fluoro-2-trifluoromethylbenzamide], testing at 10 µM gave an inhibition of 36%. `Cc1ccc2onc(NC(=O)c3ccccc3Cl)c2c1` [Example 120, 2-chloro-N-(5-methylbenzo[d]isoxazol-3-yl)benzamide] showed an inhibition at 10 µM of 47.9%.

Regarding `Cc1cc(C(=O)Nc2noc3ccccc23)no1` [Example 91, 5-methylisoxazole-3-benzo[d]isoxazol-3-ylcarboxamide], the “mGluR5 receptor inhibition … in % (10 μM)” value worked out at 35.00%.

Compound `CCC(C)C(=O)Nc1noc2ccccc12` (stereo not shown) [Example 86, N-benzo[d]isoxazol-3-yl-2-methylbutyramide] registered an inhibition at 10 µM of 39.6%.

Regarding `O=C(Nc1noc2cccc(Cl)c12)C12CC3CC(CC(C3)C1)C2` [Example 151, adamantane-1-(4-chlorobenzo[d]isoxazol-3-yl)carboxamide], the “mGluR5 receptor inhibition … in % (10 μM)” value came to 74.05%. Still for that read-out and setting: under `CN(C)c1cccc2onc(NC(=O)C34CC5CC(CC(C5)C3)C4)c12` [Example 172, adamantane-1-(4-dimethylaminobenzo[d]isoxazol-3-yl)carboxamide] stands 51.40%. The compound `CCCC(C)C(=O)Nc1noc2ccc(C)cc12` (stereo not shown) [Example 146, N-(5-methylbenzo[d]isoxazol-3-yl)-2-methylpentanamide] yielded an inhibition at 10 µM of 34%. In turn, `O=C(Nc1noc2ccc(F)cc12)c1ccccc1Br` [Example 103, 2-bromo-N-(5-fluorobenzo[d]isoxazol-3-yl)benzamide] came in with an inhibition at 10 µM of 41.2%. On the same count and under the same terms, under `Cc1cccc(C(=O)Nc2noc3cccc(Cl)c23)c1` [Example 153, N-(4-chlorobenzo[d]isoxazol-3-yl)-3-methylbenzamide] stands 63.8%. `O=C(Nc1noc2ccc(Br)cc12)c1c(F)cccc1F` [Example 136, N-(5-bromobenzo[d]isoxazol-3-yl)-2,6-difluorobenzamide] registered an inhibition at 10 µM of 40.8%. For the compound `Nc1c(F)c(F)c2c(NC(=O)c3c(F)cccc3F)noc2c1F` [Example 176, N-(6-amino-4,5,7-trifluorobenzo[d]isoxazol-3-yl)-2,6-difluorobenzamide], the inhibition at 10 µM was found to be 36.1%. `O=C(Nc1noc2c(F)cccc12)c1ccccc1Cl` [Example 93, 2-chloro-N-(7-fluorobenzo[d]isoxazol-3-yl)benzamide] displayed an inhibition at 10 µM of 35.4%. Turning to `CN(C)c1cccc2onc(NC(=O)c3cc4ccccc4s3)c12` [Example 173, benzo[b]thiophene-2-(4-dimethylaminobenzo[d]isoxazol-3-yl)carboxamide], the “mGluR5 receptor inhibition … in % (10 μM)” value was 43.55%. The compound `CC(C)(C)CC(=O)Nc1noc2cccc(Cl)c12` [Example 155, N-(4-chlorobenzo[d]isoxazol-3-yl)-3,3-dimethylbutyramide] gave an inhibition at 10 µM of 52.4%. Regarding `Cc1ccc2onc(NC(=O)c3ccc(F)cc3F)c2c1` [Example 127, 2,4-difluoro-N-(5-methylbenzo[d]isoxazol-3-yl)benzamide], testing at 10 µM gave an inhibition of 43.2%. Take `COc1cccc2onc(NC(=O)c3ccccc3C(F)(F)F)c12` [Example 158, N-(4-methoxybenzo[d]isoxazol-3-yl)-2-trifluoromethylbenzamide]: 10 µM produced 36.1% inhibition.

The compound `CCC(C)C(=O)Nc1noc2cc(Cl)ccc12` (stereo not shown) [Example 113, N-(6-chlorobenzo[d]isoxazol-3-yl)-2-methylbutyramide] showed an inhibition at 10 µM of 49.2%.

`Nc1c(F)c(F)c2c(NC(=O)c3ccc(F)cc3F)noc2c1F` [Example 177, N-(6-amino-4,5,7-trifluorobenzo[d]isoxazol-3-yl)-2,4-difluorobenzamide] had an inhibition at 10 µM of 30.8%. Compound `O=C(Nc1noc2c(F)cccc12)c1ccccc1` [Example 95, N-(7-fluorobenzo[d]isoxazol-3-yl)benzamide] gave an inhibition at 10 µM of 45.8%.

Compound `CN(C)c1cccc2onc(NC(=O)c3cccc([N+](=O)[O-])c3)c12` [Example 171, N-(4-dimethylaminobenzo[d]isoxazol-3-yl)-3-nitrobenzamide] yielded an inhibition at 10 µM of 42.3%. `Cc1ccccc1C(=O)Nc1noc2c(F)cccc12` [Example 99, N-(7-fluorobenzo[d]isoxazol-3-yl)-2-methylbenzamide] came in with an inhibition at 10 µM of 43%. On the same count and under the same terms, under `CCCc1ccc(C(=O)Nc2noc3cccc(OCc4ccc(C)cc4)c23)cc1` [Example 168, N-[4-(4-methylbenzyloxy)benzo[d]isoxazol-3-yl]-4-propylbenzamide] stands 32.2%; under `O=C(Nc1noc2ccc(F)cc12)c1ccc(F)cc1F` [Example 105, 2,4-difluoro-N-(5-fluorobenzo[d]isoxazol-3-yl)benzamide], 53.8%; under `O=C(Nc1noc2ccccc12)c1cccnc1` [Example 90, N-benzo[d]isoxazol-3-ylnicotinamide], 50.3%. Consider `O=C(Nc1noc2cc(F)ccc12)c1cccc2ccccc12` [Example 101, naphthalene-1-(6-fluorobenzo[d]isoxazol-3-yl)carboxamide], for which the “mGluR5 receptor inhibition … in % (10 μM)” value was found to be 48.99%. Consider `O=C(Nc1noc2ccc(F)cc12)c1ccc2ccccc2c1` [Example 106, naphthalene-2-(5-fluorobenzo[d]isoxazol-3-yl)carboxamide], for which the “mGluR5 receptor inhibition … in % (10 μM)” value was determined as 33.72%. As for `CN(C)c1cccc2onc(NC(=O)c3ccc(Cl)c(Cl)c3)c12` [Example 170, 3,4-dichloro-N-(4-dimethylaminobenzo[d]isoxazol-3-yl)benzamide], the inhibition at 10 µM is 38%. Still for that read-out and setting: to `COc1cccc(OC)c1C(=O)Nc1noc2ccc(Br)cc12` [Example 139, N-(5-bromobenzo[d]isoxazol-3-yl)-2,6-dimethoxybenzamide] belongs 41.5%; to `O=C(Nc1noc2cccc(Cl)c12)c1ccccc1` [Example 152, N-(4-chlorobenzo[d]isoxazol-3-yl)benzamide], 31.6%. Regarding `Cc1ccc2onc(NC(=O)c3ccc(Br)cc3)c2c1` [Example 119, 4-bromo-N-(5-methylbenzo[d]isoxazol-3-yl)benzamide], the inhibition at 10 µM was 37.9%.

`O=C(Nc1noc2ccc(Br)cc12)c1ccccc1Br` [Example 140, 2-bromo-N-(5-bromobenzo[d]isoxazol-3-yl)benzamide] gave an inhibition at 10 µM of 38.4%. Take `COc1cccc(C(=O)Nc2noc3ccc(Br)cc23)c1` [Example 142, N-(5-bromobenzo[d]isoxazol-3-yl)-3-methoxybenzamide]: at 10 µM the inhibition was 37.8%. In the case of `O=C(Nc1noc2ccccc12)c1ccc(C(F)(F)F)c(F)c1` [Example 88, N-benzo[d]isoxazol-3-yl-3-fluoro-4-trifluoromethylbenzamide], at 10 µM the inhibition was 30%. On to `O=C(Nc1noc2cc(Cl)ccc12)c1cc(F)c(Cl)cc1Cl` [Example 111, 2,4-dichloro-N-(6-chlorobenzo[d]isoxazol-3-yl)-5-fluorobenzamide], for which the inhibition at 10 µM was 43%. Turning to `CCC(C)C(=O)Nc1noc2cccc(OC)c12` (stereo not shown) [Example 160, N-(4-methoxybenzo[d]isoxazol-3-yl)-2-methylbutyramide], the inhibition at 10 µM was 54%. For the compound `O=C(Nc1noc2ccc(Br)cc12)c1cccc(F)c1F` [Example 133, N-(5-bromobenzo[d]isoxazol-3-yl)-2,3-difluorobenzamide], the inhibition at 10 µM came out at 34.6%. `CCCCC(CC)C(=O)Nc1noc2cc(Cl)ccc12` (stereo not shown) [Example 112, N-(6-chlorobenzo[d]isoxazol-3-yl)-2-ethylhexanamide] displayed an inhibition at 10 µM of 35.1%.

`O=C(Nc1noc2cccc(F)c12)c1ccccc1` [Example 147, N-(4-fluorobenzo[d]isoxazol-3-yl)benzamide] registered an inhibition at 10 µM of 31.4%.
